US8343930B2, “Combination therapy for the treatment of tumors” (Cancer Advances, Inc., priority 2001, dated 2013)

Experiments:
[1] = tested on: advanced colorectal cancer; details: advanced disease (Petrioli et al., 1995); cited from earlier work
a number of cell lines = details: Seva et al., 1990; Watson et al., 1991a; cited from earlier work
[2] = tested on: gastrin-sensitive mouse colon tumor MC26; details: MC26-bearing mice; control animals 25 days; cited from earlier work
rat colon tumor DHDK12 = test: In vivo growth of DHDK12 tumors in abdominal wall muscle layer of BDIX rats; details: immunization alone (200 μg/ml), 50 day time period; untreated 4.43 g
Protocol: Cell line. DHDK12 is a rat colonic epithelial tumor cell line (Martin, 1983). The cell line was maintained in RPMI 1640 growth medium (Gibco, Paisley, Scotland) containing 10% fetal calf serum (FCS, Sigma, Poole, UK) in humidified conditions at 37° C. and 5% CO2.
Initiation of tumor growth. DHDK12 cells were suspended in sterile phosphate buffered line (PBS, Oxoid, Hants., UK) at a cell concentration of 2.5×10^7/ml. Rats were anesthetized by a 1 ml intraperitoneal injection of Hypnorm ([…] fenatanyl citrate and 10 mg/ml fluanisone; Jannsen, Berrse, Belgium), Hypnovel ([…] midazolam; Roche, Basel, Switzerland), and sterile distilled water in a 1:1:5 ratio. Following a subcutaneous (s.c.) incision on the right flank, a 200 μl volume of cell suspension was injected into the muscle layer of the abdominal wall and the surgical incision closed by wound clips. Each experimental group was composed of between 6 and 13 animals.
The effects of combined therapies with 5-FU/Leucovorin (12.5-30 mg/kg) and rat anti-G17(1-9)-DT (200 μg/ml) on the growth of the rat colon tumor DHDK12 cell line in the muscle layer of the abdominal wall of BDIX rats were tested by comparison to tumors in control animals as described in the previous Examples. At the end of the therapies the rats were killed, their tumors excised and weighed using standard procedures. […]

## O=c1[nH]cc(F)c(=O)[nH]1 [5-FU, 5-fluorouracil]
[1]
  median survival: 7.5 months

## O=C(N[C@@H](Cc1c[nH]c2ccccc12)C(=O)O)c1ccc(Cl)cc1 [Benzotript]
A number of cell lines
  effect on basal and gastrin-stimulated proliferation: inhibited

## CCCN(CCC)C(=O)C(CCC(=O)O)NC(=O)c1ccccc1 (centres unmarked) [proglumide]
[2]
  survival of treated animals: 39 days
A number of cell lines
  effect on basal and gastrin-stimulated proliferation: inhibited

## Diphtheria toxoid [DT]
Rat colon tumor DHDK12
  median tumor weight: 4.7 g
